# In ChEMBL document CHEMBL1130636, “PDE4 inhibitors: new xanthine analogues” (Bioorg Med Chem Lett, 1998):
# The source made the active and inactive calls. The calls are words filed in the database; no cut-off is given here.
# How the values were obtained:
# Phosphodiesterase 4 [1] = target: T1, Phosphodiesterase 4 (Homo sapiens, UniProt P27815+Q08499+Q07343+Q08493); assay: Inhibition of PDE4; format: protein assay
# Phosphodiesterase 4 [2] = target: T1, Phosphodiesterase 4; assay: Inhibition of rolipram binding; format: protein assay
# Phosphodiesterase 4 [3] = target: T1, Phosphodiesterase 4; assay: Relative inhibition of PDE4 activity and rolipram binding to PDE4; format: protein assay
# Mustela putorius furo = assay: Emetic effect in ferrets on oral administration at 10 mg/kg (No effect); format: functional, organism-based; set-up: dose 10 mg/kg
# Cavia porcellus [4] = assay: Inhibition of eosinophil recruitment in guinea pig lung asthma model at 10 mg/kg oral dose; format: functional
# Cavia porcellus [5] = assay: Inhibition of eosinophil recruitment in guinea pig lung asthma model at 30 mg/kg oral dose; format: functional
# Cavia porcellus [6] = assay: Inhibition of eosinophil recruitment in guinea pig lung asthma model at 10 mg/kg; format: functional
# Phosphodiesterase 4 [7] = target: T1, Phosphodiesterase 4; assay: Inhibition of rolipram binding to PDE4; format: protein assay
IC50 (Phosphodiesterase 4 [1]),IC50 (Phosphodiesterase 4 [2]),Ratio (Phosphodiesterase 4 [3]),Structure (SMILES),also measured
11 µM,0.32 µM,34,Nc1cccc(-n2c(=O)n(Cc3ccccc3)c(=O)c3[nH]cnc32)c1,
6.01 µM,0.017 µM,353,COc1cccc(-n2c(=O)n(Cc3ccccc3)c(=O)c3[nH]cnc32)c1,
4.08 µM,0.009 µM,453,COC(=O)c1cccc(-n2c(=O)n(Cc3ccccc3)c(=O)c3[nH]cnc32)c1,
4.8 µM,0.08 µM,60,O=c1c2[nH]cnc2n(-c2ccccc2)c(=O)n1Cc1ccccc1,
56 µM,1.6 µM,35,C[S+]([O-])c1cccc(-n2c(=O)n(Cc3ccccc3)c(=O)c3[nH]cnc32)c1 (centres undefined),
110 µM,,,O=C(O)c1cccc(-n2c(=O)n(Cc3ccccc3)c(=O)c3[nH]cnc32)c1,
6.55 µM,,156,O=c1c2[nH]cnc2n(-c2cccc(Cl)c2)c(=O)n1Cc1ccccc1,IC50 (Phosphodiesterase 4 [7]): 0.042 µM

# Second part, the compound before the results:
Structure (SMILES),IC50 (Phosphodiesterase 4 [1]),IC50 (Phosphodiesterase 4 [2]),Ratio (Phosphodiesterase 4 [3]),also measured
Cc1ccccc1-n1c(=O)n(Cc2cccs2)c(=O)c2[nH]cnc21,4.2 µM,1.02 µM,4.1,Activity (Mustela putorius furo): inactive; inhibition in vivo at 10 mg/kg (Cavia porcellus [4]): 56%; inhibition in vivo at 30 mg/kg (Cavia porcellus [5]): 70%
O=c1c2[nH]cnc2n(-c2ccccc2F)c(=O)n1Cc1ccccc1,2.4 µM,0.22 µM,10.9,
Cc1ccccc1-n1c(=O)n(Cc2ccco2)c(=O)c2[nH]cnc21,11.95 µM,1.1 µM,10.9,
C[S+]([O-])c1ccccc1-n1c(=O)n(Cc2ccccc2)c(=O)c2[nH]cnc21 (centres undefined),100 µM,,,
COc1ccc(C2CNC(=O)C2)cc1OC1CCCC1 (centres undefined) [ROLIPRAM],,,,inhibition in vivo at 10 mg/kg (Cavia porcellus [6]): 48%
Cc1ccccc1-n1c(=O)n(Cc2ccccc2)c(=O)c2[nH]cnc21,7.97 µM,0.67 µM,11.9,
CC(C)(C)c1ccccc1-n1c(=O)n(Cc2ccccc2)c(=O)c2[nH]cnc21,> 20 µM,,,
CSc1ccccc1-n1c(=O)n(Cc2ccccc2)c(=O)c2[nH]cnc21,20 µM,,,
O=c1c2[nH]cnc2n(-c2ccccc2C(F)(F)F)c(=O)n1Cc1ccccc1,20 µM,,,
